Test results published in patent publication US12371752B2 (priority 2019, dated 2025).

System: Arthrobacter ureafaciens-derived neuraminidase
Assay: Reactivity of probe with Arthrobacter ureafaciens-derived neuraminidase (time-dependent fluorescence intensity)
Assay type: biochemical
Conditions: probe 1 μM, 0.01 U neuraminidase, 100 mm NaOAc, 2 mM CaCl2, pH7.4, 37° C., excitation 490 nm, emission 520 nm
Protocol: A probe (HMRef-S-Neu5Ac) was dissolved in dimethyl sulfoxide (DMSO, fluorescence measurement grade, Dojindo Laboratories) to obtain a stock solution. The stock solution was diluted with a buffer solution (100 mm NaOAc, 2 mM CaCl2, pH7.4) such that a final concentration of the probe became 1 μM, to obtain a measurement solution.
A fluorescence spectrum of the measurement solution was obtained by Hitachi F-700, every one second (excitation wavelength 490 nm, emission wavelength 520 nm). Sixty seconds after initiation of measurement, 0.01 U of Arthrobacter ureafaciens-derived neuraminidase was added singly or in combination with an enzyme inhibitor.

Structure (SMILES): CC(=O)N[C@H]1[C@H]([C@H](O)[C@H](O)CO)O[C@@](Oc2ccc(COc3ccc4c(c3)Oc3cc(NCC(F)(F)F)ccc3C43OCc4ccccc43)cc2)(C(=O)O)C[C@@H]1O (stereo partly shown) [HMRef-S-Neu5Ac]
- increase of fluorescence intensity by the reaction with the bacterium-derived neuraminidase: 130 times
